In PubChem BioAssay (NCI):
Values joined by “and” are separate entries in the source; they are usually repeats but may differ in a detail not shown here. Equal entries are not always repeated.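 A five-concentration, 48-hour dose response in 96-well plates underlies each endpoint, interpolated linearly between surrounding concentrations. At the GI50, growth is halved. TGI denotes the concentration required for complete inhibition of growth.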

How the values were obtained:
Assay in all cases: DTP human tumour cell line panel, 48 h
[1] = test system: SF-268 CNS
[2] = test system: HCT-116 colon
[3] = test system: CAKI-1 renal
[4] = test system: MOLT-4 leukemia
[5] = test system: A549 NSCLC
[6] = test system: COLO 205 colon
[7] = test system: CCRF-CEM leukemia
[8] = test system: NCI-H522 lung
[9] = test system: MCF7 breast
[10] = test system: BT-549 breast

SMILES	TGI [1]	TGI [2] [µM]	TGI [3] [µM]	TGI [4]	TGI [5] [µM]	TGI [6] [µM]	TGI [7]	TGI [8]	GI50 [1] [µM]	GI50 [2] [µM]	GI50 [3] [µM]	GI50 [4] [µM]	GI50 [5] [µM]	GI50 [9] [µM]	TGI [9] [µM]	GI50 [10] [µM]	TGI [10] [µM]	GI50 [8]	GI50 [6] [µM]	GI50 [7] [µM]
Nc1nc(N)c(-c2ccccc2)c(C(=O)Nc2nccs2)n1	> 100 µM	> 100	> 100	> 100 µM	> 100	> 100	> 100 µM	–	–	–	–	–	–	–	–	–	–	–	–	–
O=C(O)C12C3C4C1C1C2C3C41I (stereo not drawn)	> 100 µM	> 100	> 100	> 100 µM	> 100	> 100	> 100 µM	> 100 µM	–	–	–	–	–	–	–	–	–	–	–	–
Oc1ccc(CCNc2nc3ccccc3c3[nH]c4ccccc4c23)cc1	5.01 µM	2.89	3.76	> 100 µM	2.75	–	–	–	1.71	1.22	1.59	0.472	1.33	1.37	3.16	1.93	3.69	–	–	–
CCCNc1ncnc2c1cnn2C	> 100 µM	> 100	> 100	> 100 µM	> 100	> 100	> 100 µM	> 100 µM	–	–	–	–	–	–	–	–	–	–	–	–
COC(=O)C1=C(C)N(NC(=O)Nc2ccccc2)C2(N)N(NC(=O)Nc3ccccc3)C(C)=C(C(=O)OC)C12C(=O)OC (stereo not drawn)	> 100 µM	> 100	82.9	71.3 µM	> 100	> 100	> 100 µM	> 100 µM	–	–	–	–	–	–	–	–	–	–	–	–
CCOC(=O)/C(=C/c1ccc[nH]1)P(=O)(OCC)OCC	> 100 µM	> 100	> 100	> 100 µM	> 100	> 100	> 100 µM	> 100 µM	–	–	–	–	–	–	–	–	–	–	–	–
O=c1cccccc1[O-].O=c1cccccc1[O-].O=c1cccccc1[O-].[Dy+3]	> 100 µM	41.4	> 100	46.2 µM	> 100	–	55.2 µM	> 100 µM	–	–	–	–	–	–	–	–	–	–	–	–
O=C(Nc1cccc(C(F)(F)F)c1)Nc1cc(S(=O)(=O)NC2CC2)ccc1-c1ccsc1	21.3 µM	13.4	18.6	9.53 µM	14.7	7.41	18.3 µM	13 µM	5.95	3.51	4.47	3.02	3.68	3.26	15	–	–	3.05 µM	2.71	3.25
O=C(COC(=O)[C@H](C[Se][Se]C[C@H](NC(=O)c1ccc(Br)cc1F)C(=O)OCC(=O)c1ccc(F)cc1)NC(=O)c1ccc(Br)cc1F)c1ccc(F)cc1	1.18 µM	3.52	2.66	71.3 µM	4.45	3.95	–	4.38 µM	0.52	1.02	0.716	3.54	1.03	0.984	3.06	0.603	1.31	2.2 µM	1.67	–
CC(C)C12CCC3(CCC4C(C)(C(=O)O)CCCC4(C)C3C1)C(CN)C2 (stereo not drawn)	> 100 µM	34.2	> 100	–	> 100	33.2	19.4 µM	70.3 µM	–	–	–	–	–	–	> 100	–	95.5	–	–	–
COc1ccc(C[C@H](N)C(=O)N[C@@H]2[C@@H](CO)OC(n3cnc4c(N(C)C)ncnc43)[C@@H]2O)cc1 (stereo partly drawn)	1.18 µM	0.628	16.6	1.77 µM	–	0.756	–	0.493 µM	–	0.152	4.44	0.275	–	0.152	0.621	0.588	1.83	0.126 µM	0.218	–
CCCCCCCCCCCCCCCC(=O)NCC(OCC)OCC	> 100 µM	> 100	–	–	> 100	> 100	> 100 µM	> 100 µM	–	–	–	–	–	–	–	–	–	–	–	–
CN1C/C(=C\c2ccco2)c2nc(N)nc(-c3ccco3)c2C1	> 100 µM	> 100	> 100	> 100 µM	> 100	> 100	> 100 µM	> 100 µM	–	–	–	–	–	–	–	–	–	–	–	–
CC1=C2[C@@H](c3ccccc3)C3C=CC2(C=C3C(F)(F)F)N(C(=O)NC2CCCCC2)C1=O (stereo partly drawn)	> 100 µM	> 100	> 100	> 100 µM	> 100	> 100	> 100 µM	–	–	–	–	–	–	–	–	–	–	–	–	–
Cc1cc2c(=O)cc(-c3ccncc3)oc2c(C(=O)O)c1C	> 100 µM	> 100	–	> 100 µM	> 100	> 100	> 100 µM	–	–	–	–	–	–	–	–	–	–	–	–	–
CN(C)C(=O)c1cc2cnc(Nc3ccc(N4CCNCC4)cn3)nc2n1C1CCCC1	38.3 µM	48.7	> 100	34.5 µM	41.6	26.5	> 100 µM	–	14.1	4.25	20	1.8	12	0.592	37.2	–	–	–	1.75	2.92
Clc1ccc(N=CNc2ccc(-c3nc4ccccc4[nH]3)cc2)cc1	> 100 µM	> 100	42.5	> 100 µM	> 100	> 100	–	> 100 µM	19.6	> 100	0.827	> 100	> 100	–	–	20.7	57.3	> 100 µM	3.99	–
CCn1c(SC)nnc1-c1cc2c([nH]c3ccccc32)c(-c2cccc(O)c2)n1	25.5 µM	14	–	> 100 µM	62.9	27.5	> 100 µM	11.8 µM	3.42	2.5	–	2.05	3.61	0.995	25.2	1.68	6.31	1.06 µM	9.49	1.57
Cc1nc(-c2cccnc2)sc1C(=O)/C=C/c1ccc(Cl)cc1Cl	> 100 µM	–	> 100	> 100 µM	> 100	> 100	> 100 µM	> 100 µM	–	–	–	–	–	–	–	–	–	–	–	–
O=C(/C=C/c1ccc(OCC(=O)N2CCN(c3ccccc3)CC2)cc1)c1ccccc1	> 89.4 µM	> 56.6	> 100	> 25.2 µM	> 100	> 100	> 25.6 µM	> 56.8 µM	–	–	–	–	–	–	–	–	–	–	–	–
COC(=O)CCSC(=O)Nc1ccccc1Cl	> 100 µM	> 100	> 100	> 100 µM	> 100	> 100	> 100 µM	28.1 µM	–	–	–	–	–	–	–	–	–	–	–	–
O=[N+]([O-])c1cccc(C2=NOC3CCCC23)c1 (stereo not drawn)	> 100 µM	> 100	> 100	> 100 µM	> 100	> 100	> 100 µM	> 100 µM	–	–	–	–	–	–	–	–	–	–	–	–

SMILES	TGI [1]	TGI [2] [µM]	TGI [3] [µM]	TGI [4]	TGI [5] [µM]	TGI [6] [µM]	TGI [7]	TGI [8]	GI50 [1] [µM]	GI50 [2] [µM]	GI50 [3] [µM]	GI50 [4] [µM]	GI50 [5] [µM]	GI50 [9] [µM]	TGI [9] [µM]	GI50 [10] [µM]	TGI [10] [µM]	GI50 [8]	GI50 [6] [µM]	GI50 [7] [µM]
O=C(CO[N+](=O)[O-])OCC(=O)c1ccccc1	> 100 µM	> 100	> 100	> 100 µM	> 100	> 100	> 100 µM	> 100 µM	–	–	–	–	–	–	–	–	–	–	–	–
CCNc1nc(-c2ccc(Cl)c(OC)c2)c(-c2ccnc(NCCNS(=O)(=O)c3ccc(Cl)cc3)n2)s1	> 100 µM	6.25	–	–	53.6	6.61	> 100 µM	4.35 µM	4.03	2.65	–	–	3.57	3.03	> 100	3.09	38	1.92 µM	2.32	2.83
COc1cccc(OC)c1/C=N\N1C(=O)c2ccccc2C1=O	> 100 µM	87.6	> 100	> 100 µM	> 100	–	> 100 µM	–	–	–	–	–	–	–	–	–	–	–	–	–
Cc1cc2c(SCc3ccccc3Cl)nc(N)nc2nc1C	> 100 µM	> 100	> 100	–	> 100	> 100	> 100 µM	> 100 µM	–	–	–	–	–	–	> 100	–	> 100	–	–	–
CCOC(=O)C1C(=O)C(=O)N2CCc3c([nH]c4ccccc34)C12 (stereo not drawn)	> 100 µM	> 100	> 100	> 100 µM	> 100	> 100	> 100 µM	> 100 µM	–	–	–	–	–	–	–	–	–	–	–	–
NC1=NN(c2ccccc2)C(=O)C1/C(=N\NC(=O)c1cc2ccccc2cc1O)C(=O)Nc1ccc(Cl)cc1 (stereo not drawn)	89.3 µM	> 100	> 100	40.5 µM	> 100	49.7	24.4 µM	83.4 µM	–	–	–	–	–	–	–	–	–	–	–	–
CC1=CC(=O)N2[C@H](OC[C@@H]2C(C)C)O1	> 100 µM	> 100	> 100	> 100 µM	> 100	> 100	> 100 µM	> 100 µM	–	–	–	–	–	–	–	–	–	–	–	–
CC(C)=NO.CC(C)=NO.CC(C)=NO.CC(C)=NO.[Ti]	> 100 µM	–	> 100	> 100 µM	> 100	> 100	> 100 µM	> 100 µM	> 100	–	> 100	> 100	> 100	–	–	–	–	> 100 µM	> 100	> 100
CCNC(=O)O/N=C1/C=C2CC[C@@H]3C(CC[C@@]4(C)C3CC[C@@H]4OC(=O)NCC)[C@@]2(C)CC1 (stereo partly drawn)	–	12.2	16.9	5.44 µM	14.2	7.87	–	4.77 µM	–	–	–	–	–	–	–	–	–	–	–	–
O=[N+]([O-])C1(CO)COC(CCc2ccccc2)OC1 (stereo not drawn)	–	> 100	–	> 100 µM	> 100	–	> 100 µM	> 100 µM	–	–	–	–	–	–	–	–	–	–	–	–
CCOC(=O)NC/C=C/CO	> 100 µM	> 100	> 100	> 100 µM	> 100	> 100	> 100 µM	> 100 µM	–	–	–	–	–	–	–	–	–	–	–	–
C=CCCC1(CCP(=O)(c2ccccc2)c2ccccc2)OCCO1	> 100 µM	> 100	–	> 100 µM	> 100	> 100	> 100 µM	> 100 µM	–	–	–	–	–	–	> 100	–	> 100	–	–	–
COC(=O)N/N=C(\c1nc2ccc(Cl)cc2[nH]c1=O)C(O)c1ccc([N+](=O)[O-])cc1 (stereo not drawn)	> 100 µM	> 100	> 100	> 100 µM	> 100	> 100	> 100 µM	> 100 µM	–	–	–	–	–	–	–	–	–	–	–	–
Cc1c2cc[n+](C)cc2c(C)c2c1[nH]c1ccc(Oc3ccccc3)cc12	14.7 µM and > 19.9 µM	> 100	> 100	> 43.7 µM and 12.7 µM	> 100	5.25	18.6 µM and 22.9 µM	12.1 µM and 8.56 µM	–	–	–	–	–	–	–	–	–	2.41 µM and 0.743 µM	–	–
O=C(Nc1ccccc1)Oc1ccccc1C1CCCCC1	> 100 µM	90.2	–	> 100 µM	88.5	30.6	67.3 µM	–	–	–	–	–	–	–	–	–	–	–	–	–
CCCCc1c2c(nc3c1CC/C(=C\c1ccccc1)C3=O)CCCC2	12.6 µM	16.1	–	11.7 µM	28	23.1	29.4 µM	6.37 µM	–	–	–	–	–	–	–	–	–	–	–	–
O=C(Nc1cccc(C(F)(F)F)c1)Nc1ccc(OCc2nnc(-c3ccccc3)o2)c(F)c1	78.2 µM	16.5	37.4	39.8 µM	38.5	10.6	54.9 µM	–	12.3	3.02	6.68	3.59	6.02	4.21	24.4	–	–	–	2.47	3.29
O=C1COc2cc3c(cc2N1)SCC(=O)N3	> 100 µM	> 100	> 100	> 100 µM	> 100	> 100	> 100 µM	> 100 µM	–	–	–	–	–	–	–	–	–	–	–	–
CN(C)c1ccc(/C=C2\Cc3ccccc3C2=O)cc1Br	> 100 µM	–	> 100	93.5 µM	> 100	> 100	> 100 µM	70.6 µM	–	–	–	–	–	–	–	–	–	–	–	–
NC(=O)NC(=O)C1CCC(=O)N1S(=O)(=O)c1ccc(Cl)cc1 (stereo not drawn)	> 100 µM	> 100	> 100	> 100 µM	> 100	> 100	> 100 µM	> 100 µM	–	–	–	–	–	–	–	–	–	–	–	–
Cc1cc(C2(c3cc(C)c(O)c4ncccc34)OC(=O)c3ccccc32)c2cccnc2c1O	–	> 100	1.07	> 100 µM	14	28.5	> 100 µM	> 100 µM	–	–	–	–	–	–	> 100	5.26	> 100	–	0.405	–
